Results as given in PubChem BioAssay AID1963842 (Molecular Pharmacology Branch, DTP, NCI, 2024).

Test system: 677734-321-R-J1-PDC complex spheroid viability
Assay: Anticancer human tumor 677734-321-R-J1-PDC patient-derived soft tissue sarcoma cell line growth inhibition [POLQ]
Settings: for IC50: curve of first compound; for viability, T/C: stronger effect = lower value; active = viability on the fitted dose curve at most 10% of control; inactive = the rest
In short: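 Three-cell-type spheroids modelling solid tumor plus stroma served as the readout system; POL inhibitors were tested individually and in combination, concentration ranges set by clinical Cmax where known.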

[1] = second compound 0.0316 µM, first compound 0.00316 µM
[2] = second compound 0.0316 µM, first compound 0.01 µM
[3] = second compound 0.0316 µM, first compound 0.0316 µM
[4] = second compound 0.0316 µM, first compound 0.1 µM
[5] = second compound 0.0316 µM, first compound 0.316 µM
[6] = second compound 0.0316 µM, first compound 1 µM
[7] = second compound 0.1 µM, first compound 0.00316 µM
[8] = second compound 0.1 µM, first compound 0.01 µM
[9] = second compound 0.1 µM, first compound 0.0316 µM
[10] = second compound 0.1 µM, first compound 0.1 µM
[11] = second compound 0.1 µM, first compound 0.316 µM
[12] = second compound 0.1 µM, first compound 1 µM
[13] = second compound 0.316 µM, first compound 0.00316 µM
[14] = second compound 0.316 µM, first compound 0.01 µM
[15] = second compound 0.316 µM, first compound 0.0316 µM
[16] = second compound 0.316 µM, first compound 0.1 µM
[17] = second compound 0.316 µM, first compound 0.316 µM
[18] = second compound 0.316 µM, first compound 1 µM
[19] = second compound 1 µM, first compound 0.00316 µM
[20] = second compound 1 µM, first compound 0.01 µM
[21] = second compound 1 µM, first compound 0.0316 µM
[22] = second compound 1 µM, first compound 0.1 µM
[23] = second compound 1 µM, first compound 0.316 µM
[24] = second compound 1 µM, first compound 1 µM
[25] = second compound 3.16 µM, first compound 0.00316 µM
[26] = second compound 3.16 µM, first compound 0.01 µM
[27] = second compound 3.16 µM, first compound 0.0316 µM
[28] = second compound 3.16 µM, first compound 0.1 µM
[29] = second compound 3.16 µM, first compound 0.316 µM
[30] = second compound 3.16 µM, first compound 1 µM
[31] = second compound 10 µM, first compound 0.00316 µM
[32] = second compound 10 µM, first compound 0.01 µM
[33] = second compound 10 µM, first compound 0.0316 µM
[34] = second compound 10 µM, first compound 0.1 µM
[35] = second compound 10 µM, first compound 0.316 µM
[36] = second compound 10 µM, first compound 1 µM
[37] = second compound 0.0316 µM, first compound 3.16 µM
[38] = second compound 0.0316 µM, first compound 10 µM
[39] = second compound 0.1 µM, first compound 3.16 µM
[40] = second compound 0.1 µM, first compound 10 µM
[41] = second compound 0.316 µM, first compound 3.16 µM
[42] = second compound 0.316 µM, first compound 10 µM
[43] = second compound 1 µM, first compound 3.16 µM
[44] = second compound 1 µM, first compound 10 µM
[45] = second compound 3.16 µM, first compound 3.16 µM
[46] = second compound 3.16 µM, first compound 10 µM
[47] = second compound 10 µM, first compound 3.16 µM
[48] = second compound 10 µM, first compound 10 µM
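Also: spheroids exposed to compounds for one week.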
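For viability, T/C in this document: 100% = vehicle DMSO treated spheroids.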

CCc1c2c(nc3ccc(O)cc13)-c1cc3c(c(=O)n1C2)COC(=O)[C@]3(O)CC + Nc1ccc(C#CCN(C(=O)Cc2ncc(C(F)(F)F)cc2C(F)(F)F)c2ccc(F)cc2)nn1
< 3.16 nM: IC50 (second compound 0.0316 µM) | IC50 (second compound 0.1 µM) | IC50 (second compound 0.316 µM) | IC50 (second compound 1 µM) | IC50 (second compound 3.16 µM) | IC50 (second compound 10 µM)
active: viability, T/C [3] 5.47% | viability, T/C [4] 4.82% | viability, T/C [5] 4.02% | viability, T/C [6] 1.51% | viability, T/C [9] 6.31% | viability, T/C [10] 5.31% | viability, T/C [11] 3.85% | viability, T/C [12] 1.25% | viability, T/C [15] 5.47% | viability, T/C [16] 4.33% | viability, T/C [17] 3.5% | viability, T/C [18] 1.28% | viability, T/C [21] 5.38% | viability, T/C [22] 5.22% | viability, T/C [23] 4.16% | viability, T/C [24] 1.16% | viability, T/C [26] 8.9% | viability, T/C [27] 5.24% | viability, T/C [28] 4.43% | viability, T/C [29] 5.24% | viability, T/C [30] 1.3% | viability, T/C [33] 6.72% | viability, T/C [34] 4.78% | viability, T/C [35] 3.27% | viability, T/C [36] 1.35%
inactive: viability, T/C [1] 22.2% | viability, T/C [2] 10.8% | viability, T/C [7] 19.4% | viability, T/C [8] 9.07% | viability, T/C [13] 24.3% | viability, T/C [14] 10.8% | viability, T/C [19] 22.5% | viability, T/C [20] 10.8% | viability, T/C [25] 22.5% | viability, T/C [31] 25.9% | viability, T/C [32] 11%

CNCc1ccc(-c2[nH]c3cc(F)cc4c3c2CCNC4=O)cc1 + Nc1ccc(C#CCN(C(=O)Cc2ncc(C(F)(F)F)cc2C(F)(F)F)c2ccc(F)cc2)nn1
> 10000 nM: IC50 (second compound 0.0316 µM) | IC50 (second compound 0.1 µM) | IC50 (second compound 0.316 µM) | IC50 (second compound 1 µM) | IC50 (second compound 3.16 µM) | IC50 (second compound 10 µM)
inactive: viability, T/C [3] 90.2% | viability, T/C [4] 99.6% | viability, T/C [5] 100% | viability, T/C [6] 81% | viability, T/C [37] 101% | viability, T/C [38] 81.6% | viability, T/C [9] 113% | viability, T/C [10] 106% | viability, T/C [11] 107% | viability, T/C [12] 100% | viability, T/C [39] 106% | viability, T/C [40] 61.8% | viability, T/C [15] 100% | viability, T/C [16] 109% | viability, T/C [17] 106% | viability, T/C [18] 127% | viability, T/C [41] 94.5% | viability, T/C [42] 80.1% | viability, T/C [21] 118% | viability, T/C [22] 86.4% | viability, T/C [23] 106% | viability, T/C [24] 91.8% | viability, T/C [43] 88.7% | viability, T/C [44] 67.4% | viability, T/C [27] 97.7% | viability, T/C [28] 109% | viability, T/C [29] 109% | viability, T/C [30] 113% | viability, T/C [45] 101% | viability, T/C [46] 63.5% | viability, T/C [33] 97.4% | viability, T/C [34] 99.3% | viability, T/C [35] 89.2% | viability, T/C [36] 114% | viability, T/C [47] 107% | viability, T/C [48] 63.6%

COc1cccc(OCCCN)c1-c1cc(Nc2cnc(C#N)cn2)n[nH]1 + Nc1ccc(C#CCN(C(=O)Cc2ncc(C(F)(F)F)cc2C(F)(F)F)c2ccc(F)cc2)nn1
6.21 nM: IC50 (second compound 0.0316 µM)
4.93 nM: IC50 (second compound 3.16 µM)
active: viability, T/C [3] 5.82% | viability, T/C [4] 6.83% | viability, T/C [5] 7.28% | viability, T/C [6] 5.14% | viability, T/C [9] 6.58% | viability, T/C [10] 6.56% | viability, T/C [11] 8.96% | viability, T/C [12] 3.87% | viability, T/C [15] 5.86% | viability, T/C [16] 9.23% | viability, T/C [17] 6.18% | viability, T/C [18] 5.17% | viability, T/C [21] 6% | viability, T/C [22] 6.97% | viability, T/C [23] 6.56% | viability, T/C [24] 5.02% | viability, T/C [27] 9% | viability, T/C [28] 6.22% | viability, T/C [29] 7.97% | viability, T/C [30] 5.64% | viability, T/C [32] 9.16% | viability, T/C [33] 6.91% | viability, T/C [34] 7.72% | viability, T/C [35] 6.82% | viability, T/C [36] 5.03%
3.71 nM: IC50 (second compound 10 µM)
inactive: viability, T/C [1] 101% | viability, T/C [2] 13.8% | viability, T/C [7] 67.2% | viability, T/C [8] 14.3% | viability, T/C [13] 77% | viability, T/C [14] 17.7% | viability, T/C [19] 83.6% | viability, T/C [20] 25.5% | viability, T/C [25] 72.7% | viability, T/C [26] 13.8% | viability, T/C [31] 56.6%
5.33 nM: IC50 (second compound 0.316 µM)
4.6 nM: IC50 (second compound 0.1 µM)
6.15 nM: IC50 (second compound 1 µM)

O=C(c1cc(Cc2n[nH]c(=O)c3ccccc23)ccc1F)N1CCN(C(=O)C2CC2)CC1 + Nc1ccc(C#CCN(C(=O)Cc2ncc(C(F)(F)F)cc2C(F)(F)F)c2ccc(F)cc2)nn1
> 10000 nM: IC50 (second compound 0.0316 µM) | IC50 (second compound 0.1 µM) | IC50 (second compound 0.316 µM) | IC50 (second compound 1 µM) | IC50 (second compound 3.16 µM) | IC50 (second compound 10 µM)
inactive: viability, T/C [3] 97% | viability, T/C [4] 122% | viability, T/C [5] 101% | viability, T/C [6] 105% | viability, T/C [37] 88.1% | viability, T/C [38] 63.3% | viability, T/C [9] 110% | viability, T/C [10] 102% | viability, T/C [11] 98.6% | viability, T/C [12] 110% | viability, T/C [39] 83.8% | viability, T/C [40] 71.2% | viability, T/C [15] 110% | viability, T/C [16] 116% | viability, T/C [17] 104% | viability, T/C [18] 93.2% | viability, T/C [41] 96.1% | viability, T/C [42] 68.8% | viability, T/C [21] 109% | viability, T/C [22] 108% | viability, T/C [23] 96.5% | viability, T/C [24] 93% | viability, T/C [43] 92.7% | viability, T/C [44] 50.3% | viability, T/C [27] 123% | viability, T/C [28] 110% | viability, T/C [29] 89.4% | viability, T/C [30] 92.8% | viability, T/C [45] 90.9% | viability, T/C [46] 65.3% | viability, T/C [33] 109% | viability, T/C [34] 103% | viability, T/C [35] 103% | viability, T/C [36] 105% | viability, T/C [47] 91.9% | viability, T/C [48] 66.8%
